Assay results published in patent publication US7371766B2, “Curcumin analogs with anti-tumor and anti-angiogenic properties” (Emory University, priority 1999, dated 2008).
Read-outs that look alike come from different tables or passages of the source.

Key:
[1] = tested on: SF-268; assay: cells; details: Homo sapiens, SF-268, 48 h; for GI50: read-out: Median Growth Inhibitory Concentration (GI50); for CC50: read-out: Median Lethal Concentration (LC50)
[2] = tested on: HOP-92; assay: cells; details: Homo sapiens, HOP-92, 48 h; for GI50: read-out: Median Growth Inhibitory Concentration (GI50); for CC50: read-out: Median Lethal Concentration (LC50)
[3] = tested on: MDA-N; assay: cells; details: Homo sapiens, 48 h; for GI50: read-out: Median Growth Inhibitory Concentration (GI50); for CC50: read-out: Median Lethal Concentration (LC50)
[4] = tested on: OVCAR-8; assay: cells; details: Homo sapiens, OVCAR-8, 48 h; for GI50: read-out: Median Growth Inhibitory Concentration (GI50); for CC50: read-out: Median Lethal Concentration (LC50)
[5] = tested on: SF-539; assay: cells; details: Homo sapiens, SF-539, 48 h; for GI50: read-out: Median Growth Inhibitory Concentration (GI50); for CC50: read-out: Median Lethal Concentration (LC50)
[6] = tested on: TK-10; details: 48 hours; for GI50: read-out: Median Growth Inhibitory Concentration (GI50), TK-10, Renal Cancer
[7] = tested on: BT-549; details: 48 hours; for GI50: read-out: Median Growth Inhibitory Concentration (GI50), BT-549, Breast Cancer
[8] = tested on: HS 578T; details: for GI50: read-out: Median Growth Inhibitory Concentration (GI50), Breast Cancer, 48 hours
[9] = tested on: HL-60 (TB); details: for GI50: read-out: Median Growth Inhibitory Concentration (GI50), Leukemia, 48 hours
[10] = tested on: COLO 205; details: 48 hours; for GI50: read-out: Median Growth Inhibitory Concentration (GI50), COLO 205, Colon Cancer
[11] = tested on: SK-MEL-2; details: 48 hours; for GI50: read-out: Median Growth Inhibitory Concentration (GI50), SK-MEL-2, Melanoma
[12] = tested on: SNB-19; details: 48 hours; for GI50: read-out: Median Growth Inhibitory Concentration (GI50), SNB-19, CNS Cancer
[13] = tested on: SK-MEL-5; details: 48 hours; for GI50: read-out: Median Growth Inhibitory Concentration (GI50), SK-MEL-5, Melanoma
[14] = tested on: SN12C; details: for GI50: read-out: Median Growth Inhibitory Concentration (GI50), Renal Cancer, 48 hours
[15] = tested on: RXF 393; details: 48 hours; for GI50: read-out: Median Growth Inhibitory Concentration (GI50), RXF 393, Renal Cancer
[16] = tested on: NCI-H226; details: 48 hours; for GI50: read-out: Median Growth Inhibitory Concentration (GI50), NCI-H226, Non-Small Cell Lung Cancer
[17] = tested on: NCI-H522; details: 48 hours; for GI50: read-out: Median Growth Inhibitory Concentration (GI50), NCI-H522, Non-Small Cell Lung Cancer
[18] = tested on: MCF-7; details: 48 hours; for GI50: read-out: Median Growth Inhibitory Concentration (GI50), MCF-7, Breast Cancer
[19] = tested on: HT29; details: 48 hours; for GI50: read-out: Median Growth Inhibitory Concentration (GI50), HT29, Colon Cancer
[20] = tested on: SK-OV-3; details: 48 hours; for GI50: read-out: Median Growth Inhibitory Concentration (GI50), SK-OV-3, Ovarian Cancer
[21] = tested on: HOP-62; details: 48 hours; for GI50: read-out: Median Growth Inhibitory Concentration (GI50), HOP-62, Non-Small Cell Lung Cancer
[22] = tested on: NCI-H460; details: 48 hours; for GI50: read-out: Median Growth Inhibitory Concentration (GI50), NCI-H460, Non-Small Cell Lung Cancer
[23] = tested on: SR; details: for GI50: read-out: Median Growth Inhibitory Concentration (GI50), Leukemia, 48 hours
[24] = tested on: U251; details: 48 hours; for GI50: read-out: Median Growth Inhibitory Concentration (GI50), U251, CNS Cancer
[25] = tested on: HOP-92; details: 48 hours; for GI50: read-out: Median Growth Inhibitory Concentration (GI50), HOP-92, Non-Small Cell Lung Cancer
[26] = tested on: UO-31; details: 48 hours; for GI50: read-out: Median Growth Inhibitory Concentration (GI50), UO-31, Renal Cancer
[27] = tested on: A498; details: 48 hours; for GI50: read-out: Median Growth Inhibitory Concentration (GI50), A498, Renal Cancer
[28] = tested on: T-47D; details: for GI50: read-out: Median Growth Inhibitory Concentration (GI50), Breast Cancer, 48 hours
[29] = tested on: CAKI-1; details: 48 hours; for GI50: read-out: Median Growth Inhibitory Concentration (GI50), CAKI-1, Renal Cancer
[30] = tested on: RPMI-8226; details: 48 hours; for GI50: read-out: Median Growth Inhibitory Concentration (GI50), RPMI-8226, Leukemia
[31] = tested on: OVCAR-5; details: 48 hours; for GI50: read-out: Median Growth Inhibitory Concentration (GI50), OVCAR-5, Ovarian Cancer
[32] = read-out: Median Lethal Concentration (LC50), Breast Cancer, 48 hours, SRB assay
[33] = read-out: Median Lethal Concentration (LC50), Leukemia, 48 hours, SRB assay

## OC(CCc1ccc(F)cc1F)CCc1ccc(F)cc1F [EF19, 1,5-Bis(2,4-difluorophenyl)-pentan-3-ol]
[1]
  GI50: 21.5 µM
  CC50: 85.3 µM
[2]
  GI50: 17.5 µM
  CC50: 59.3 µM
[3]
  GI50: 16.9 µM
  CC50: 55.2 µM
[4]
  GI50: 18 µM
  CC50: 67.3 µM
[5]
  GI50: 16.9 µM
  CC50: 55.3 µM

## N.N.[Cl][Pt][Cl] [Cisplatin, reference compound]
[6]
  GI50: 1.3 µM
[7]
  GI50: 1.3 µM
[8]
  GI50: 1.3 µM
[9]
  GI50: 0.1 µM
[10]
  GI50: 4 µM
[11]
  GI50: 1.3 µM
[12]
  GI50: 1 µM
[13]
  GI50: 0.5 µM
[14]
  GI50: 1 µM
[15]
  GI50: 0.8 µM
[16]
  GI50: 0.8 µM
[17]
  GI50: 0.8 µM
[18]
  GI50: 0.4 µM
[19]
  GI50: 1.3 µM
[20]
  GI50: 1.3 µM
[21]
  GI50: 0.3 µM
[22]
  GI50: 0.1 µM
[23]
  GI50: 0.1 µM
[24]
  GI50: 0.4 µM
[25]
  GI50: 0.6 µM
[26]
  GI50: 0.8 µM
[27]
  GI50: 2 µM
[28]
  GI50: 2 µM
[29]
  GI50: 0.3 µM
[30]
  GI50: 0.5 µM
[31]
  GI50: 1.3 µM

## CC(=O)O.O=C1C(=Cc2ccccc2F)CNCC1=Cc1ccccc1F [EF24, 3,5-Bis-(2-fluorobenzylidene)-piperidin-4-one-acetate]
[1]
  GI50: 0.6 µM
  CC50: 55.6 µM
[2]
  GI50: 3 µM
  CC50: 23.3 µM
[3]
  GI50: 0.5 µM
  CC50: 5.6 µM
[4]
  GI50: 0.4 µM
  CC50: 31.3 µM
[5]
  GI50: 0.3 µM
  CC50: 7.6 µM

## O=C1C(=Cc2ccccc2O)COCC1=Cc1ccccc1O [EF25, 3,5-Bis(2-hyrdoxybenzylidene)tetrahydro4-H-pyran4-one]
[6]
  GI50: 2.2 µM
[6]; read-out: Median Lethal Concentration (LC50), Renal Cancer, TK-10, SRB assay
  CC50: 24.6 µM
[7]
  GI50: 1.5 µM
[7]; read-out: Median Lethal Concentration (LC50), Breast Cancer, BT-549, SRB assay
  CC50: 13.6 µM
[8]
  GI50: 5.1 µM
[8]; [32]
  CC50: 72.3 µM
[9]
  GI50: 1.1 µM
[9]; [33]
  CC50: > 100 µM
[10]
  GI50: 2 µM
[10]; read-out: Median Lethal Concentration (LC50), Colon Cancer, COLO 205, SRB assay
  CC50: 33.4 µM
[11]
  GI50: 2 µM
[11]; read-out: Median Lethal Concentration (LC50), Melanoma, SK-MEL-2, SRB assay
  CC50: 12.6 µM
[12]
  GI50: 2.2 µM
[12]; read-out: Median Lethal Concentration (LC50), CNS Cancer, SNB-19, SRB assay
  CC50: 37.3 µM
[13]
  GI50: 1.5 µM
[13]; read-out: Median Lethal Concentration (LC50), Melanoma, SK-MEL-5, SRB assay
  CC50: 6.6 µM
[14]
  GI50: 1.4 µM
[14]; read-out: Median Lethal Concentration (LC50), Renal Cancer, 48 hours, SRB assay
  CC50: 12 µM
[15]
  GI50: 0.6 µM
[15]; read-out: Median Lethal Concentration (LC50), Renal Cancer, RXF 393, SRB assay
  CC50: 4.6 µM
[16]
  GI50: 2.2 µM
[16]; read-out: Median Lethal Concentration (LC50), Non-Small Cell Lung Cancer, NCI-H226, SRB assay
  CC50: 58 µM
[17]
  GI50: 0.9 µM
[17]; read-out: Median Lethal Concentration (LC50), Non-Small Cell Lung Cancer, NCI-H522, SRB assay
  CC50: 14.1 µM
[18]
  GI50: 0.3 µM
[18]; read-out: Median Lethal Concentration (LC50), Breast Cancer, MCF-7, SRB assay
  CC50: 44.7 µM
[19]
  GI50: 2 µM
[19]; read-out: Median Lethal Concentration (LC50), Colon Cancer, HT29, SRB assay
  CC50: 67.5 µM
[20]
  GI50: 2.4 µM
[20]; read-out: Median Lethal Concentration (LC50), Ovarian Cancer, SK-OV-3, SRB assay
  CC50: 26.9 µM
[21]
  GI50: 1.5 µM
[21]; read-out: Median Lethal Concentration (LC50), Non-Small Cell Lung Cancer, HOP-62, SRB assay
  CC50: 37.2 µM
[22]
  GI50: 1.2 µM
[22]; read-out: Median Lethal Concentration (LC50), Non-Small Cell Lung Cancer, NCI-H460, SRB assay
  CC50: 38.9 µM
[23]
  GI50: 0.2 µM
[23]; [33]
  CC50: 76.3 µM
[24]
  GI50: 0.7 µM
[24]; read-out: Median Lethal Concentration (LC50), CNS Cancer, U251, SRB assay
  CC50: 5.8 µM
[25]
  GI50: 2.4 µM
[25]; read-out: Median Lethal Concentration (LC50), Non-Small Cell Lung Cancer, HOP-92, SRB assay
  CC50: 35.4 µM
[26]
  GI50: 1.2 µM
[26]; read-out: Median Lethal Concentration (LC50), Renal Cancer, UO-31, SRB assay
  CC50: 68.1 µM
[27]
  GI50: 1.3 µM
[27]; read-out: Median Lethal Concentration (LC50), Renal Cancer, A498, SRB assay
  CC50: 6 µM
[28]
  GI50: 1.3 µM
[28]; [32]
  CC50: 92.9 µM
[29]
  GI50: 1.8 µM
[29]; read-out: Median Lethal Concentration (LC50), Renal Cancer, CAKI-1, SRB assay
  CC50: 53.7 µM
[30]
  GI50: 0.2 µM
[30]; read-out: Median Lethal Concentration (LC50), Leukemia, RPMI-8226, SRB assay
  CC50: 70.9 µM
[31]
  GI50: 1.7 µM
[31]; read-out: Median Lethal Concentration (LC50), Ovarian Cancer, OVCAR-5, SRB assay
  CC50: 8.4 µM

## O=C(C=Cc1ccc(F)cc1F)C=Cc1ccc(F)cc1F [EF9, 1,5-Bis(2,4-difluorophenyl)penta-1,4-dien-3-one]
[1]
  GI50: 13.7 µM
  CC50: > 100 µM
[2]
  GI50: 16.3 µM
  CC50: 70.4 µM
[3]
  GI50: 2.9 µM
  CC50: 33.2 µM
[4]
  GI50: 3.4 µM
  CC50: 85.3 µM
[5]
  GI50: 2.6 µM
  CC50: 23.1 µM

## CC1(/C=C/c2ccccc2O)C=Cc2ccccc2O1 (stereo not shown) [EF7]
[1]
  GI50: 19.8 µM
  CC50: > 100 µM
[2]
  GI50: 12.7 µM
  CC50: 54.9 µM
[3]
  GI50: 16.1 µM
  CC50: 56.9 µM
[4]
  GI50: 17 µM
  CC50: 86.4 µM
[5]
  GI50: 17.3 µM
  CC50: 55.7 µM

## COc1cc(/C=C/C(=O)CC(=O)/C=C/c2ccc(O)c(OC)c2)ccc1O [Curcumin]
[1]
  GI50: 6.3 µM
  CC50: < 100 µM
[3]
  GI50: 2.5 µM
  CC50: 31.6 µM
[4]
  GI50: 7.9 µM
  CC50: 79.4 µM
[5]
  GI50: 3.2 µM
  CC50: 31.6 µM

## O=C1C(=Cc2ccccc2O)CCCC1=Cc1ccccc1O [EF4, 2,6Bis(2-hydroxybenzylidene)cyclohexanone]
[1]
  GI50: 3 µM
  CC50: 53.2 µM
[2]
  GI50: 2.8 µM
  CC50: 41.4 µM
[3]
  GI50: 1.6 µM
  CC50: 20.2 µM
[4]
  GI50: 2.9 µM
  CC50: > 100 µM
[5]
  GI50: 2 µM
  CC50: 24.7 µM
